From patent US7935718B2, “Treatment of dyskinesia” (Motac Neuroscience Limited, priority 2000, dated 2011)

What was measured:
[1] = system: MPTP-lesioned marmoset model of Parkinson's disease; experiment: L-DOPA-induced mobility and dyskinesia in MPTP-lesioned marmosets; format: in vivo, Marmosets (Callithrix jacchus); conditions: L-DOPA (8 mg/kg) + imetit 1, 3, 10 mg/kg oral; assessed every 30 minutes for 4 hours
Description: The effect of the H3-histamine receptor agonist imetit on L-DOPA-induced dyskinesia was assessed in the MPTP-lesioned marmoset model of Parkinson's disease.
Marmosets (Callithrix jacchus) (bred in a closed colony at the University of Manchester) are rendered parkinsonian by subcutaneous injection of 2 mg kg^−1 MPTP for 5 consecutive days. The marmosets are allowed to recover for a minimum of 10 weeks until their parkinsonism becomes stable. The degree of activity and disability before and after MPTP treatment is assessed using a combination of scales as described in section 2.1.2. Animals are then treated with L-DOPA for at least 3 weeks to prime them to elicit dyskinesia. […]
The behavioural tests were assessed every 30 minutes for 4 hours, by post hoc analysis of video-recordings by an observer blinded to the treatment. […]

[2] = system: reserpine-treated rat model of Parkinson's disease; experiment: Locomotion (hyperkinesia) after chloro-APB in reserpine-treated parkinsonian rats; format: in vivo; conditions: reserpine (3 mg/kg) rats, chloro-APB (0.2 mg/kg) + imetit (1 mg/kg) versus vehicle, one hour period
Description: The effect of the H3-histamine receptor agonist imetit on dyskinesia was assessed in a reserpine-treated rat model of Parkinson's disease following treatment of the rats with the anti-parkinsonian agent chloro-APB (0.2 mg/kg).
Male Sprague-Dawley rats were split into two groups A and B. Rats in both groups were rendered parkinsonian by subcutaneous administration of reserpine (3 mg/kg) for 18 hours.
After the 18 hours Group A were treated with chloro-APB (0.2 mg/kg) and imetit (1 mg/kg) whereas B were treated with chloro-APB (0.2 mg/kg) and vehicle for imetit only.
The locomotion of the rats in Groups A and B was measured over a one hour period using Benwick locomotor monitors. These locomotion monitors consist of a visually-shielded open-field arena, the perimeter of which is surrounded by a series of infra-red beams arranged at 5 cm intervals. PC-based software (Amlogger) assesses the number of beams broken. The number of beams broken as part of a locomotor movement (mobile counts) or the number of beam breaks while the animal is not locomoting (static counts) were measured. In addition, the system assesses the time for which animals are mobile or static.

N=C(N)SCCc1cnc[nH]1 [imetit]
L-DOPA-induced mobility (mobility score) [1]: no effect on L-DOPA-induced mobility | severity of L-DOPA-induced dyskinesia (dyskinesia score) [1]: dose-dependent reduction | total mobile counts [2]: less than those treated with vehicle
